Test results published in patent US8598355B2, “Amide compound” (Astellas Pharma Inc., priority 2008, dated 2013).

Tests used:
rat EP4 receptor [1] = target: T1, rat EP4 receptor (Rattus norvegicus, UniProt P43114); experiment: Evaluation test of rat EP4 receptor affinity ([3H]PGE2 binding, membrane fraction of HEK293 cells expressing rat EP4); set-up: expressed in transfected cells; host or cells: HEK293 cells, transient transfection with Lipofectamine 2000; membrane fraction; details: [3H]PGE2 0.3 nM
Method: Evaluation Test of Rat EP4 Receptor Affinity
Cell Culturing and Transfection
Using a 10 cm collagen-coated dish (Asahi Glass), HEK293 cells were cultured in D-MEM culture medium, the culture medium was removed at a confluence (90 to 100% density state) and washed with a phosphate buffer saline (PBS), and then the cells were detached with N,N,N′,N′-tetrakis(carboxymethyl)ethylenediamine (EDTA). The number of the cells were counted and seeded on a 15 cm collagen-coated dish to a confluence of 70%. On the next day, to an Opti-MEM culture medium at 1.2 mL/dish was added Lipofectamine 2000 (Invitrogen) at 60 μL/dish, followed by leaving to stand at room temperature for 5 minutes. A plasmid in which rat EP4 (Sequence Number 1) had been inserted into a TA cloning site of pcDNA3.1-V5-His-topo was added thereto at 15 μg/dish. After leaving to stand at room temperature for 30 minutes, the resultant was added to the dish and cultured for 20 to 24 hours. The cell culture was carried out in a CO2 incubator (37° C., 5% CO2).
Preparation of Membrane Fraction
The culture medium was removed by suction, 10 mL of cooled PBS was added thereto per 15 cm dish, and the cells were scraped using a cell scraper (Sumitomo Bakelite). They were washed with cooled PBS (1,200 rpm, 4° C., 5 min), and then suspended in 6 mL of cooled 20 mM Tris-HCl (pH 7.4; Nakalai Tesque Inc., including 5 mM EDTA (Nakalai Tesque Inc.) per dish and the resultant was homogenized using a Polytron and the homogenate was centrifuged (26,000 rpm, 20 min, 4° C.). The obtained precipitate was resuspended in cooled 20 mM Tris-HCl and homogenized again using a Polytron, and the homogenate was centrifuged (26,000 rpm, 20 min, 4° C.). The obtained precipitate was resuspended in 50 mM HEPES (pH 7.5; Dojindo Laboratories) at 1 mL per dish, homogenized using a Polytron, and freeze-stored at −80° C. as a membrane fraction. At this time, a part thereof was used for the measurement of the protein concentration. Measurement of the protein concentration was carried out in duplicate using a Bio-Rad Protein assay kit (Bio-Rad Laboratories) in accordance with the appended standard Protocol.
[^3H]PGE2 50 μL (final concentration 0.3 nM; Perkin Elmer), 100 μL (20 μg/well) of a membrane fraction prepared from the rat EP4 expression cell and 50 μL of a test compound were mixed in a 96-well microplate (Sumitomo Bakelite), incubated at room temperature for 1 hour, filtered by suction on a UniFilter-96 GF/B (Perkin Elmer) using a FilterMate Harvester (Perkin Elmer), and then washed three times with 300 μL/well of a cooled assay buffer. Dilution of [^3H]PGE2 and the membrane fraction was carried out using an assay buffer (50 mM HEPES, 10 mM MgCl2), and dilution of the test compound and the unlabeled PGE2 was carried out using DMSO and an assay buffer. Further, in the case of the addition of a human serum albumin (HSA), dilution was carried out using an assay buffer containing 4% HSA (final concentration 1%; Sigma). The UniFilter-96 GF/B was treated preliminarily by washing twice with 200 μL/well of a cooled assay buffer. The UniFilter-96 GF/B after filtration was dried in a dryer overnight, 50 μL/well of MicroScint20 (Perkin Elmer) was added thereto, and then the radioactivity was measured using a TopCount (Perkin Elmer). For measurement of the non-specific binding, an unlabeled PGE2 (final concentration 1 μM; Cayman) was added. All of the measurements were carried out in duplicate, and the specific binding amount was determined by subtracting the non-specific binding amount from the total binding amount. The Ki value was calculated according to the general methods.
In the connection, Ex represents the below-described Example Compound number.

rat EP4 receptor [2] = target: T1, rat EP4 receptor; experiment: In vivo rat EP4 receptor antagonistic activity (ONO-4819/LPS, plasma TNF-α); details: SD rat, oral
Method: Evaluation Test of In Vivo Rat EP4 Receptor Antagonistic Activity
A solution of PEG 400:20% Tween 80:aqueous 1 M NaHCO3 solution=1:4:5 of a test compound was orally administered to a SD rat (male, 6-week old) under non-fasting conditions, and after 1 hour, ONO-4819 was administered subcutaneously to the back of the rat. After 30 minutes, Lipopolysaccharide (LPS, 0.01 mg/kg) was administered to the tail vein without anesthesia, and after 60 minutes, 0.5 mL of heparin blood was collected from the fundus under ether anesthesia. The blood sample was centrifuged (3000 rpm, 10 minutes) to separate the plasma, and then the TNF-α concentration in the rat plasma was measured by an ELISA kit (see Hepatology Research Journal, vol. 21, 252-260, 2001). A value obtained by subtracting the TNF-α concentration of the group treated with ONO-4819 from the TNF-α concentration of the group not treated with ONO-4819 was taken as 100%, and the inhibitory rates to the value were calculated for the test compounds.
In this connection, Ex represents the below-described Example compound number.

T1 sequence (P43114 whole entry): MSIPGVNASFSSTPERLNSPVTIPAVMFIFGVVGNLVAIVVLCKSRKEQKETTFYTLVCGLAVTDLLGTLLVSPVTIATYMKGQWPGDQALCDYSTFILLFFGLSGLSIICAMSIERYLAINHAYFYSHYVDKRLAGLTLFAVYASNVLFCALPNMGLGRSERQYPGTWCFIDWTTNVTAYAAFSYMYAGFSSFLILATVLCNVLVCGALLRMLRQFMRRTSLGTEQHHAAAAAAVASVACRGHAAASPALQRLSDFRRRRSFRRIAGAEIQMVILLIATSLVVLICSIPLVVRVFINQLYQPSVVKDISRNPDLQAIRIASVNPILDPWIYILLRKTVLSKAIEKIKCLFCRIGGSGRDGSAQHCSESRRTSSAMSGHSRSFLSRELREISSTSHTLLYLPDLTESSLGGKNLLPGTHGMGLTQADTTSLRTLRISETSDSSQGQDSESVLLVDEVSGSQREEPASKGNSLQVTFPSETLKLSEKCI

Row | Ki (rat EP4 receptor [1]) [nM] | Inhibitory rate (%) (rat EP4 receptor [2]; dose 0.01 mg/kg) | Inhibitory rate (%) (rat EP4 receptor [2]; dose 0.03 mg/kg) | Structure (SMILES)
1 | 0.82 |  |  | C[C@H](NC(=O)c1cccc2ccn(Cc3ccc(-c4ccccc4)nc3)c12)c1ccc(C(=O)O)cc1 [Example 4, 4-{(1S)-1-[({1-[(6-phenylpyridin-3-yl)methyl]-1H-indol-7-yl}carbonyl)amino]ethyl}benzoic acid]
2 | 31 |  |  | C[C@H](NC(=O)c1cccc2ccn(Cc3ccc(Cl)cc3)c12)c1ccc(C(=O)NS(=O)(=O)CCCO)cc1 [Example 6, 1-(4-chlorobenzyl)-N-[(1S)-1-(4-{[(3-hydroxypropyl)sulfonyl]carbamoyl}phenyl)ethyl]-1H-indole-7-carboxamide]
3 | 0.35 | 51 |  | CN(NC(=O)c1cccc2ccn(CCOc3ccc(Cl)cc3)c12)c1ccc(C(=O)O)cc1 [Example 23]
4 | 12 |  |  | O=C(NC[C@H]1CC[C@H](C(=O)O)CC1)c1cccc2ccn(Cc3ccc(Cl)cc3)c12 [Example 32]
5 | 1.8 |  |  | O=C(NC[C@H]1CC[C@H](C(=O)O)CC1)c1cc(Cl)cc2ccn(Cc3ccc(Cl)cc3)c12 [Example 52]
6 | 1.4 |  |  | O=C(NC[C@H]1CC[C@H](C(=O)O)CC1)c1cc(C(F)(F)F)cc2ccn(Cc3ccc(Cl)cc3)c12 [Example 69]
7 | 1 |  | 60 | C[C@H](NC(=O)c1cccc2ccn(Cc3ccc(-c4ccccc4)cn3)c12)c1ccc(C(=O)O)cc1 [Example 115]
8 | 2.6 |  |  | C[C@H](NC(=O)c1cccc2ccn(Cc3ccc(N4CCCCC4)nc3)c12)c1ccc(C(=O)O)cc1 [Example 132]
9 | 9.1 |  |  | O=C(NC[C@H]1CC[C@@H](C(=O)O)CC1)c1cccc2ccn(Cc3ccc(Cl)cc3)c12 [Example 137]
10 | 0.61 |  |  | C[C@H](NC(=O)c1cccc2ccn(Cc3coc(-c4ccccc4)n3)c12)c1ccc(C(=O)O)cc1 [Example 140]
11 | 1 |  | 70 | O=C(O)c1ccc(CNC(=O)c2cc(Cl)cc3ccn(Cc4cc5ccccc5cn4)c23)cc1 [Example 143]
12 | 1.8 | 88 |  | O=C(NC[C@H]1CC[C@H](C(=O)O)CC1)c1cc(Cl)cc2ccn(Cc3cc4ccccc4cn3)c12 [Example 146]
13 | 2.1 |  | 68 | O=C(NC[C@H]1CC[C@H](C(=O)O)CC1)c1cc(C(F)(F)F)cc2ccn(Cc3cc4ccccc4cn3)c12 [Example 159]
14 | 6.3 |  |  | C[C@H](NC(=O)c1cccc2ccn(CCOC3CCCCC3)c12)c1ccc(C(=O)O)cc1 [Example 164]
15 | 0.75 |  | 58 | O=C(O)c1ccc(CNC(=O)c2cccc3ccn(Cc4cc5ccccc5o4)c23)cc1 [Example 187]
16 | 1.9 |  |  | O=C(NC[C@H]1CC[C@H](C(=O)O)CC1)c1cc(Cl)cc2ccn(Cc3csc(-c4ccccc4)n3)c12 [Example 209]
17 | 16 |  |  | O=C(NC[C@H]1CC[C@H](C(=O)O)CC1)c1cc(C(F)(F)F)cc2ccn(Cc3cccc(Cl)n3)c12 [Example 216]
18 | 3 |  |  | O=C(NC[C@H]1CC[C@H](C(=O)O)CC1)c1cc(C(F)(F)F)cc2ccn(Cc3cnc4ccccc4c3)c12 [Example 217]
19 | 2.9 |  |  | O=C(NC[C@H]1CC[C@H](C(=O)O)CC1)c1cc(C(F)(F)F)cc2ccn(Cc3ccc4cccnc4c3)c12 [Example 218]
20 | 3.3 |  |  | O=C(NC[C@H]1CC[C@H](C(=O)O)CC1)c1cc(C(F)(F)F)cc2ccn(Cc3cccc4cccnc34)c12 [Example 219]
21 | 16 |  |  | O=C(NC[C@H]1CC[C@H](C(=O)O)CC1)c1cc(C(F)(F)F)cc2ccn(Cc3cccc4cnccc34)c12 [Example 220]
22 | 2.8 |  |  | O=C(NC[C@H]1CC[C@H](C(=O)O)CC1)c1cc(C(F)(F)F)cc2ccn(Cc3ccc4ncccc4c3)c12 [Example 222]
23 | 3.5 |  |  | O=C(NC[C@H]1CC[C@H](C(=O)O)CC1)c1cc(C(F)(F)F)cc2ccn(Cc3ccc4ccncc4c3)c12 [Example 223]
24 | 2.8 |  |  | O=C(NC[C@H]1CC[C@H](C(=O)O)CC1)c1c(F)ccc2ccn(Cc3cc4ccccc4cn3)c12 [Example 226]
25 | 2.1 |  |  | O=C(NC[C@H]1CC[C@H](C(=O)O)CC1)c1cc(C(F)(F)F)cc2ccn(Cc3cc4ccccc4o3)c12 [Example 228]
